Reference: US11197908B2, “Peptoids and methods for attenuating inflammatory response” (THE BOARD OF TRUSTEES OF THE UNIVERSITY OF ARKANSAS, priority 2018, dated 2021)
Where a SMILES comes first, the peptide text is derived from it. [ ]: non-standard residue; d: D form. N(1S-Me-propyl)Gly = CC[C@H](C)NCC(=O)O; Nspe = C[C@H](NCC(=O)O)c1ccccc1; Nlys = NCCCCNCC(=O)O

Tests used:
[1] = molecular target: T1, E-cadherin (Homo sapiens, UniProt P12830); test: E-cadherin binding to JPT1a-coated 96-well plates; conditions: plates coated with 500 nM JPT1a; E-cadherin 1 to 500 nM
T1 sequence (P12830 155-882): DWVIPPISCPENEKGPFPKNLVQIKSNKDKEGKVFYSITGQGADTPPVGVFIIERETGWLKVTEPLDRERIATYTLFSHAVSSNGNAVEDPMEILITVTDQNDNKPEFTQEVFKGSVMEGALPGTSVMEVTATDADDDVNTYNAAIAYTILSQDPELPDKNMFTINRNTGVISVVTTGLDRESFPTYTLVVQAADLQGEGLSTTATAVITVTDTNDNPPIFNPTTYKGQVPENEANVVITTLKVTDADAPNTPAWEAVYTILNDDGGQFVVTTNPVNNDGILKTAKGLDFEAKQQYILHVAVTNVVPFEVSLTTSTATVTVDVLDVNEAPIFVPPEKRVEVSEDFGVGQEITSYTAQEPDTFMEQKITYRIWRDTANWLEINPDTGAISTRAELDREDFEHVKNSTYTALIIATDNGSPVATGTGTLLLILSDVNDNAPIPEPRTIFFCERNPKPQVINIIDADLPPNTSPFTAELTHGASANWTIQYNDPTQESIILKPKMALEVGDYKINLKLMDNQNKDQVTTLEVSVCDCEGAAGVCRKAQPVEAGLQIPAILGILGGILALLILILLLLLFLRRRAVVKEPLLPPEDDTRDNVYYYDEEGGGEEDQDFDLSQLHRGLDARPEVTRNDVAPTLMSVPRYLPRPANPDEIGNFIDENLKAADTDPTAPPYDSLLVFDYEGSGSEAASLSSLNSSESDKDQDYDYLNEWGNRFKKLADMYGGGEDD
Method: As shown in FIGS. 7A-7D, 96-well plates coated with 500 nM JPT1a were treated with concentrations of RAGE (FIG. 7A) or E-cadherin (FIG. 7B) ranging from 1 to 500 nM. Values are reported as the average concentration of bound protein determined from all experiments. Error bars indicate SEM, n=2-5. […] In FIG. 7D, 96-well plates coated with 500 nM JPT1 were treated with concentrations of RAGE ranging from 1 to 350 nM.

[2] = molecular target: T2, Aβ1-40 (Homo sapiens, UniProt P05067); conditions: cited from earlier work
T2 construct: modulate Aβ1-40 aggregation
T2 sequence (P05067 672-711 limits assumed): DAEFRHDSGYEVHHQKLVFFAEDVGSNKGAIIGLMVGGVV

CC[C@H](C)N(CC(=O)N(CC(=O)N(CC(=O)N(CC(=O)N(CC(=O)N(CC(=O)N(CC(N)=O)[C@@H](C)c1ccccc1)[C@@H](C)c1ccccc1)[C@@H](C)CC)[C@@H](C)c1ccccc1)[C@@H](C)c1ccccc1)[C@@H](C)CC)C(=O)CNCCCCN [JPT1a] (H-[Nlys][N(1S-Me-propyl)Gly][N(1S-Me-propyl)Gly][Nspe][Nspe][N(1S-Me-propyl)Gly][Nspe][Nspe]-NH2)
binding to E-cadherin [1]: absence of binding | Aβ1-40 aggregation [2]: capacity to modulate Aβ1-40 aggregation
